Assay results reported in the supplement of paper PMC10307832.

Columns and labels:
Assay in all cases: relative viability (nuclei count vs DMSO), 5 days (fraction); higher = more cells survive
FH535 + Crizotinib = compound: CC1=C(C=CC(=C1)[N+](=O)[O-])NS(=O)(=O)C2=C(C=CC(=C2)Cl)Cl [FH535] + C[C@@H](Oc1cc(-c2cnn(C3CCNCC3)c2)cnc1N)c1c(Cl)ccc(F)c1Cl [Crizotinib] (partner 1 µM)
Procedure, shortened: (§1)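 Each reported value is a median over duplicate plates. It expresses relative viability: treated-well nuclei count divided by vehicle-well nuclei count. Lung cancer cell lines in 1536-well plates were dosed by pin tool a day after seeding, alone with one drug or with a fixed anchor-drug dose plus five library-drug doses (not always all listed) in √10 steps, and nuclei were counted after 5 days.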

FH535 + Phenformin = compound: CC1=C(C=CC(=C1)[N+](=O)[O-])NS(=O)(=O)C2=C(C=CC(=C2)Cl)Cl [FH535] + N=C(N)NC(=N)NCCc1ccccc1 [Phenformin] (partner 250 µM)
Procedure, shortened: as §1

FH535 + Alpelisib = compound: CC1=C(C=CC(=C1)[N+](=O)[O-])NS(=O)(=O)C2=C(C=CC(=C2)Cl)Cl [FH535] + Cc1nc(NC(=O)N2CCC[C@H]2C(N)=O)sc1-c1ccnc(C(C)(C)C(F)(F)F)c1 [Alpelisib] (partner 2 µM)
Procedure, shortened: as §1

FH535 + OSI-027 = compound: CC1=C(C=CC(=C1)[N+](=O)[O-])NS(=O)(=O)C2=C(C=CC(=C2)Cl)Cl [FH535] + COc1cccc2cc(-c3nc([C@H]4CC[C@H](C(=O)O)CC4)n4ncnc(N)c34)[nH]c12 [OSI-027] (partner 0.5 µM)
Procedure, shortened: as §1

FH535 + Foretinib = compound: CC1=C(C=CC(=C1)[N+](=O)[O-])NS(=O)(=O)C2=C(C=CC(=C2)Cl)Cl [FH535] + COc1cc2c(Oc3ccc(NC(=O)C4(C(=O)Nc5ccc(F)cc5)CC4)cc3F)ccnc2cc1OCCCN1CCOCC1 [Foretinib] (partner 0.25 µM)
Procedure, shortened: as §1

Cell Line: NCI-H3122
- relative viability (FH535 + Crizotinib; first compound 0.04 µM): 0.261
- relative viability (FH535 + Crizotinib; first compound 0.1265 µM): 0.282
- relative viability (FH535 + Crizotinib; first compound 0.4 µM): 0.253
- relative viability (FH535 + Crizotinib; first compound 1.265 µM): 0.285
- relative viability (FH535 + Phenformin; first compound 0.04 µM): 0.374
- relative viability (FH535 + Phenformin; first compound 0.1265 µM): 0.344
- relative viability (FH535 + Phenformin; first compound 0.4 µM): 0.286
- relative viability (FH535 + Phenformin; first compound 1.265 µM): 0.164
- relative viability (FH535 + Alpelisib; first compound 0.04 µM): 0.715
- relative viability (FH535 + Alpelisib; first compound 0.1265 µM): 0.782
- relative viability (FH535 + Alpelisib; first compound 0.4 µM): 0.829
- relative viability (FH535 + Alpelisib; first compound 1.265 µM): 0.745
- relative viability (FH535 + OSI-027; first compound 0.04 µM): 0.919
- relative viability (FH535 + OSI-027; first compound 0.1265 µM): 1.06
- relative viability (FH535 + OSI-027; first compound 0.4 µM): 0.885
- relative viability (FH535 + OSI-027; first compound 1.265 µM): 0.751
- relative viability (FH535 + Foretinib; first compound 0.04 µM): 0.888
- relative viability (FH535 + Foretinib; first compound 0.1265 µM): 0.901
- relative viability (FH535 + Foretinib; first compound 0.4 µM): 0.924
- relative viability (FH535 + Foretinib; first compound 1.265 µM): 0.931

Cell Line: PC-3 [JPC-3]
- relative viability (FH535 + Crizotinib; first compound 0.04 µM): 0.957
- relative viability (FH535 + Crizotinib; first compound 0.1265 µM): 0.981
- relative viability (FH535 + Crizotinib; first compound 0.4 µM): 0.885
- relative viability (FH535 + Crizotinib; first compound 1.265 µM): 0.531
- relative viability (FH535 + Phenformin; first compound 0.04 µM): 0.448
- relative viability (FH535 + Phenformin; first compound 0.1265 µM): 0.405
- relative viability (FH535 + Phenformin; first compound 0.4 µM): 0.37
- relative viability (FH535 + Phenformin; first compound 1.265 µM): 0.372
- relative viability (FH535 + Alpelisib; first compound 0.04 µM): 1
- relative viability (FH535 + Alpelisib; first compound 0.1265 µM): 1.07
- relative viability (FH535 + Alpelisib; first compound 0.4 µM): 0.951
- relative viability (FH535 + Alpelisib; first compound 1.265 µM): 0.686
- relative viability (FH535 + OSI-027; first compound 0.04 µM): 0.828
- relative viability (FH535 + OSI-027; first compound 0.1265 µM): 0.704
- relative viability (FH535 + OSI-027; first compound 0.4 µM): 0.624
- relative viability (FH535 + OSI-027; first compound 1.265 µM): 0.592
- relative viability (FH535 + Foretinib; first compound 0.04 µM): 1
- relative viability (FH535 + Foretinib; first compound 0.1265 µM): 1
- relative viability (FH535 + Foretinib; first compound 0.4 µM): 0.879
- relative viability (FH535 + Foretinib; first compound 1.265 µM): 0.582

Cell Line: PC-14
- relative viability (FH535 + Crizotinib; first compound 0.04 µM): 0.94
- relative viability (FH535 + Crizotinib; first compound 0.1265 µM): 0.917
- relative viability (FH535 + Crizotinib; first compound 0.4 µM): 0.863
- relative viability (FH535 + Crizotinib; first compound 1.265 µM): 0.889
- relative viability (FH535 + Phenformin; first compound 0.04 µM): 0.571
- relative viability (FH535 + Phenformin; first compound 0.1265 µM): 0.708
- relative viability (FH535 + Phenformin; first compound 0.4 µM): 0.516
- relative viability (FH535 + Phenformin; first compound 1.265 µM): 0.331
- relative viability (FH535 + Alpelisib; first compound 0.04 µM): 0.88
- relative viability (FH535 + Alpelisib; first compound 0.1265 µM): 0.967
- relative viability (FH535 + Alpelisib; first compound 0.4 µM): 0.94
- relative viability (FH535 + Alpelisib; first compound 1.265 µM): 0.925
- relative viability (FH535 + OSI-027; first compound 0.04 µM): 0.83
- relative viability (FH535 + OSI-027; first compound 0.1265 µM): 0.9
- relative viability (FH535 + OSI-027; first compound 0.4 µM): 0.896
- relative viability (FH535 + OSI-027; first compound 1.265 µM): 0.783
- relative viability (FH535 + Foretinib; first compound 0.04 µM): 1.03
- relative viability (FH535 + Foretinib; first compound 0.1265 µM): 1.06
- relative viability (FH535 + Foretinib; first compound 0.4 µM): 0.982
- relative viability (FH535 + Foretinib; first compound 1.265 µM): 1.02

Cell Line: RERF-LC-KJ
- relative viability (FH535 + Crizotinib; first compound 0.04 µM): 0.856
- relative viability (FH535 + Crizotinib; first compound 0.1265 µM): 0.826
- relative viability (FH535 + Crizotinib; first compound 0.4 µM): 0.86
- relative viability (FH535 + Crizotinib; first compound 1.265 µM): 0.671
- relative viability (FH535 + Phenformin; first compound 0.04 µM): 0.38
- relative viability (FH535 + Phenformin; first compound 0.1265 µM): 0.429
- relative viability (FH535 + Phenformin; first compound 0.4 µM): 0.406
- relative viability (FH535 + Phenformin; first compound 1.265 µM): 0.308
- relative viability (FH535 + Alpelisib; first compound 0.04 µM): 0.739
- relative viability (FH535 + Alpelisib; first compound 0.1265 µM): 0.822
- relative viability (FH535 + Alpelisib; first compound 0.4 µM): 0.921
- relative viability (FH535 + Alpelisib; first compound 1.265 µM): 0.751
- relative viability (FH535 + OSI-027; first compound 0.04 µM): 0.538
- relative viability (FH535 + OSI-027; first compound 0.1265 µM): 0.616
- relative viability (FH535 + OSI-027; first compound 0.4 µM): 0.6
- relative viability (FH535 + OSI-027; first compound 1.265 µM): 0.4
- relative viability (FH535 + Foretinib; first compound 0.04 µM): 0.927
- relative viability (FH535 + Foretinib; first compound 0.1265 µM): 0.895
- relative viability (FH535 + Foretinib; first compound 0.4 µM): 0.869
- relative viability (FH535 + Foretinib; first compound 1.265 µM): 0.787
